Laboratory results as given in patent publication EP0037667A2, “Immobilized lactase, its preparation and use” (priority 1980, dated 1981).
Where two headings read alike, the source gives them in different places.

Experiments:
[1] = target: lactase derived from Escherichia coli (β-galactosidase; enzyme number 3. 2. 1. 23) (Escherichia coli, UniProt P00722); settings: E. coli lactase, cited from earlier work
[2] = target: T1, lactase originated from Aspergillus oryzae (extracellular enzyme, unimmobilized) (Aspergillus oryzae, UniProt Q2UCU3); assay: Km and Ki of free (unimmobilized) Aspergillus oryzae lactase; format: biochemical; settings: for Ki: substrate, lactose, free enzyme, read-out: Inhibition constant Ki by galactose
T1 construct: obtained from a strain belonging to Aspergillus oryzae as extracellular enzyme; host or cells: Aspergillus oryzae strain (natural producer, secreted)
Procedure: The lactase used in the present invention is obtained from a strain belonging to Aspergillus oryzae as extracellular enzyme, and has the following characteristics:
Km = 0.10 ± 0.05 mole/ℓ (pH 4.5, 30°C, substrate; lactose), and Km = 0.3 ± 0.15 mole/ℓ (pH 6.65, 30°C, substrate; lactose).
Ki = (6 ± 3) x 10^-3 mole/ℓ (pH 4.5, 30°C, substrate; lactose), and Ki = (4 ± 3) x 10^-3 mole/ℓ (pH 6.65, 30°C, substrate; lactose).
In the present specification, 1 ILU is defined as the amount of lactase which produces […] per minute of glucose at pH 4.5 at 30°C when a 13.3 w/v % of lactose solution is used as the substrate. The quantity of glucose thus prepared is defined by using glucose oxidase-peroxidase- dye system. When the measurement of the activity (unit) is carried out at a different pH or temperature, the pH or the temperature will specifically be given in each case.

[3] = target: T2, immobilized lactase: Aspergillus oryzae lactase covalently attached through glutaraldehyde on macroporous phenol-formaldehyde based anion-exchange resin (Aspergillus oryzae, UniProt Q2UCU3); assay: Km and Ki of the immobilized lactase, general properties; format: biochemical; settings: pH 6.65, 30°C, substrate; lactose; immobilized enzyme; read-out: Inhibition constant by galactose Ki
T2 construct: obtained from a strain belonging to Aspergillus oryzae as extracellular enzyme; host or cells: Aspergillus oryzae strain (natural producer, secreted)
Procedure: The enzymatical properties of the present immobilized lactase are given below.
Km = 0.2 ± 0.1 mole/ℓ (both pH 4.5, 30°C, substrate; lactose, and pH 6.65, 30°C, substrate; lactose)
Ki = (8 ± 5) x […] mole/ℓ (pH 4.5, 30°C, substrate; lactose) and Ki = (3 ± 2) x 10^-2 mole/ℓ (pH 6.65, 30°C, substrate; lactose).
Both values of Km and Ki for the immobilized enzyme tend to increase with increase in the concentration of the glutaraldehyde solution used for the treatment, and moreover, in the measurement thereof, it is considerably difficult to obtain the results with good reproducibility. Therefore, the above value given for Km and Ki should be understood taking this respect into consideration."

T1 sequence (Q2UCU3 19-1005): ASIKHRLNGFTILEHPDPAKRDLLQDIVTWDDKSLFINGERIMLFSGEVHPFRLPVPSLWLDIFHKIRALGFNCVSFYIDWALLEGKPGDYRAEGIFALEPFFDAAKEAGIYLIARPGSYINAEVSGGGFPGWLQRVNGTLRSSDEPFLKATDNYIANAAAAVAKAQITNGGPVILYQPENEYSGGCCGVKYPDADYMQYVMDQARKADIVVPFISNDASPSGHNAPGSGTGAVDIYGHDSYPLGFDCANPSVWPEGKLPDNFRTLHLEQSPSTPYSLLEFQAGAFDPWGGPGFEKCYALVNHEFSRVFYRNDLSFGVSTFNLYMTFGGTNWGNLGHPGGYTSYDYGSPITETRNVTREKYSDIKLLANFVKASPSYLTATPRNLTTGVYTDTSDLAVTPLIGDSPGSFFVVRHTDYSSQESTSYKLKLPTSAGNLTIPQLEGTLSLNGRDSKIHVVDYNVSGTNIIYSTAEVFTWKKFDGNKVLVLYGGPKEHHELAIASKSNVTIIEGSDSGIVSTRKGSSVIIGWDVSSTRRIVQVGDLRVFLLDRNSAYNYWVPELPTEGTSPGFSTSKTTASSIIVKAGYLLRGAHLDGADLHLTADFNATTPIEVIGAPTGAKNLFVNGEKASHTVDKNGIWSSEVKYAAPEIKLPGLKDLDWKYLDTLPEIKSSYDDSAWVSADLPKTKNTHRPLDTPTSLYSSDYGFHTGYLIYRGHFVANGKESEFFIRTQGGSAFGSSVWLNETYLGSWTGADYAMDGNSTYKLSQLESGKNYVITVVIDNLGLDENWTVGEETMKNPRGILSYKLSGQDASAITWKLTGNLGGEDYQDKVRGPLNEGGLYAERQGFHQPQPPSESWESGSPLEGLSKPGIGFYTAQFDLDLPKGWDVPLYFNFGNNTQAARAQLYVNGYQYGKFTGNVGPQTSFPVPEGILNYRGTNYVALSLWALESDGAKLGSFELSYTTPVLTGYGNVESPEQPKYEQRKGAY
lactase derived from Escherichia coli (β-galactosidase; enzyme number 3. 2. 1. 23), sequence (P00722 2-1024): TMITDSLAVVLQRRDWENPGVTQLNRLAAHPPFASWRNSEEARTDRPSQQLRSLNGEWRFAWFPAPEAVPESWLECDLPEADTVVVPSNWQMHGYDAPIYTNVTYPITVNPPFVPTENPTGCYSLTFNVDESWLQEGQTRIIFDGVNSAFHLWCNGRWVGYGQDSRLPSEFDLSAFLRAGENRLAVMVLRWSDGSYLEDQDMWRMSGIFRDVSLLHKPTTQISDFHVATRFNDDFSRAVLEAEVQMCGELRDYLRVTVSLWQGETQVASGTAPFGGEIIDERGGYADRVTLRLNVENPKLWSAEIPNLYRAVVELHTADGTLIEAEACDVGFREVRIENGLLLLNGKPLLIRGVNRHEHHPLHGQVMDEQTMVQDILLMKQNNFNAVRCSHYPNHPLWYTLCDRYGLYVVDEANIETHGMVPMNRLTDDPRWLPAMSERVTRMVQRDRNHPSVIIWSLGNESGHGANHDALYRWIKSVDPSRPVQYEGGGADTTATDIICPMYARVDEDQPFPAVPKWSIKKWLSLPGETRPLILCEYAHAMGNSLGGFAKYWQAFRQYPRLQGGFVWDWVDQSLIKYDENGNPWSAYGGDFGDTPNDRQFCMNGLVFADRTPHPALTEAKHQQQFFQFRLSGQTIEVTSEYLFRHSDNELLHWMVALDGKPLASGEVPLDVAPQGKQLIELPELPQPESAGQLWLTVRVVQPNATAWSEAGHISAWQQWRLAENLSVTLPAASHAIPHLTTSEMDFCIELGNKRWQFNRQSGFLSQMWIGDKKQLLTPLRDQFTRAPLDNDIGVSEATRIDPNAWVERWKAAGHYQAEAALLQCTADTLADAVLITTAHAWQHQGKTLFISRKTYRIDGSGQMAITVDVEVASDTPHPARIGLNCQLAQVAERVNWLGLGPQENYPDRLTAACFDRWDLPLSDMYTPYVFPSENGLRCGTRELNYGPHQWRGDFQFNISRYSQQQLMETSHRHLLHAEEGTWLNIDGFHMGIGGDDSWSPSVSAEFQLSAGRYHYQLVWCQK
T2 sequence (Q2UCU3 19-1005): as the sequence (Q2UCU3 19-1005) above

## O=[N+]([O-])c1ccccc1O[C@@H]1O[C@H](CO)[C@H](O)[C@H](O)[C@H]1O [ONPG, ortho-nitrophenyl-β-D-galactopyranoside, reference compound]
[1]; read-out: Michaelis constant Km (substrate; ONPG)
  Km: 0.95 mM

## OC[C@H]1OC(O)[C@H](O)[C@@H](O)[C@H]1O (stereo partly drawn) [galactose]
[2]; pH 4.5, 30°C
  Ki: 6 mM
[2]; pH 6.65, 30°C
  Ki: 4 mM
[3]
  Ki: 30 mM

## OC[C@H]1O[C@@H](O[C@H]2[C@H](O)[C@@H](O)C(O)O[C@@H]2CO)[C@H](O)[C@@H](O)[C@H]1O (stereo partly drawn) [lactose]
[2]; pH 4.5, 30°C, dry lactase powder used in Example 3 (Shinnihon Kagaku Kogyo, 80 ILU/mg)
  Km: 100 mM
[1]; read-out: Michaelis constant Km (substrate; lactose)
  Km: 7.5 mM
